{"source": "patent US3987167A", "about": "“Antibiotic 20,798 R.P” (Rhone-Poulenc S.A., priority 1968, dated 1976)", "key": {"[1]": {"test_system": "acute lymphoblastic and myeloblastic leucaemias", "assay": "Activity in human therapy", "type": "in vivo", "settings": "intravenous, daily doses between 0.1 and 2 mg./kg., adult", "procedure": "In human therapy 20,798 R.P. is active, particularly against acute lymphoblastic and myeloblastic leucaemias, when administered intravenously at daily doses of between 0.1 and 2 mg./kg. for an adult; a composition for injection for example, consists of a solution of 0.1 mg./cc. of active substance in physiological serum."}, "sarcoma 180": {"test_system": "sarcoma 180", "assay": "Anti-tumour activity in mice, sarcoma 180", "settings": "graftable tumours of mice, solid form of sarcoma 180"}, "leucaemia L1210": {"test_system": "leucaemia L1210", "assay": "Anti-tumour activity in mice, leucaemia L1210", "settings": "graftable tumours of mice, leucaemia L 1210"}, "[2]": {"assay": "Stability to acid treatment of the fermentation broth", "type": "physicochemical", "settings": "10° to 75° C., 48 hours to 30 minutes", "procedure": "When desired, the fermentation broth can, before the extraction procedures, be treated with an acid at a temperature between 10° and 75° C. for a period of from 48 hours to 30 minutes, the length of time varying inversely with the temperature, so as to enrich the antibiotic 9865 R.P. with daunorubicin. […] For acidification of the fermentation broth inorganic acids (hydrochloric, phosphoric or sulphuric acid) or organic acids (acetic or oxalic acid etc.) are suitable at various concentrations, but preferably hydrochloric acid or oxalic acid is used at concentrations of between 0.01N and 1N. The hydrolysis is preferably carried out for a period of from 15 hours to 1 hour at a temperature of from 20 C. to 50° C., the length of time varying inversely with the temperature."}}}
{"compound": "COc1cccc2c1C(=O)c1c(O)c3c(c(O)c1C2=O)CC(O)(C(C)O)CC3OC1CC(N)C(O)C(C)O1", "note": "(stereo not shown) [20,798 R.P.]", "values": [{"measurement": "activity in human therapy", "setting": "[1]", "result": "active"}, {"measurement": "anti-tumour activity", "setting": "sarcoma 180", "result": "particularly active"}, {"measurement": "anti-tumour activity", "setting": "leucaemia L1210", "result": "particularly active"}, {"measurement": "hydrolysis on acid treatment", "setting": "[2]", "result": "not hydrolysed"}]}
